Like-named read-outs stand apart in the source and are kept apart here.
Tests used:
[1] = system: L. (V.) braziliensis promastigotes; experiment: Antileishmanial activity on promastigotes (MTT, 72 h); type: cell-based, Leishmania (Viannia) braziliensis
Protocol: Leishmania (Viannia) braziliensis (MHOM/BR/1975/M2903) was utilized in this study. The promastigote forms of these parasites were maintained in vitro in Schneider’s insect medium pH 7.2, supplemented with 20% fetal bovine serum (FBS) and 1% antibiotic solution (100 U/mL penicillin and 100 μg/mL streptomycin) at a temperature of 26 ± 1 °C in a Biochemical Oxygen Demand (BOD) incubator (Eletrolab EL202, São Paulo, Brazil), with regular aeration and weekly subculturing.
Assessment of antileishmanial activity against promastigote and amastigote axenic forms of parasites followed the method described by Rodrigues et al. and involved the following steps: L. (V.) braziliensis parasites were cultured in 96-well plates at a concentration of 1 × 10^6 parasites per well. Each well contained 100 μL of supplemented Schneider medium. Serial concentrations of the test substances, ranging from 50 to 1.56 μmol/L, were prepared. Reference drugs, meglumine antimoniate (20 to 40,000 μmol/L) and amphotericin B (0.031 to 2 μmol/L) were also prepared. These concentrations were used to assess the effects of the test substances in comparison to reference drugs. The plates were incubated in a BOD incubator at 26 °C for 72 h. After the 72 h incubation period, 10 μL of MTT (5 mg/mL) was added to each well. The plates were then incubated for an additional 4 h. At the end of the 4 h incubation, formazan crystals formed by the reduction of the MTT salt were solubilized by adding 50 μL of a 10% (w/v) sodium dodecyl sulfate (SDS) solution in distilled water. Absorbance was measured using a microplate reader at a wavelength of 540 nm (Biosystems ELx800 model, Curitiba, PR, Brazil). This measurement quantified the metabolic activity of the parasites, which is indicative of their viability and proliferation. Schneider medium containing 0.2% DMSO was used as a negative control in the tests.
The different mean concentrations for promastigotes (IC50) and macrophages (CC50) were calculated using nonlinear regression. For comparisons between groups, ANOVA analysis of variance was performed followed by Tukey’s test in a statistical program, taking the p-value < 0.05 as the maximum level of statistical significance.

TNF-α = experiment: Cytokine production in supernatant of infected macrophages (ELISA), TNF-α; type: cell-based, murine; details: supernatant of RAW 264.7 macrophages infected with L. (V.) braziliensis
From the text: To assess the production of cytokines TNF-α and IL-12 (associated with Th1 response), as well as IL-10 and IL-6 (associated with Th2 response), in the supernatants of the macrophage infection assay, the sandwich enzyme-linked immunosorbent assay (ELISA) method was employed, following the manufacturer’s instructions (eBioscience^TM, San Diego, CA, USA). Initially, capture antibodies specific to TNF-α, IL-6, IL-10, and IL-12 were sensitized in ELISA plates (NUNC-ImmunoTM, Sigma-Aldrich, St. Louis, MO, USA). The plates were incubated at 4 °C for 18 h. After the incubation period, all wells were washed with a solution containing 0.05% PBS and Tween 20 (Sigma-Aldrich, St. Louis, MO, USA). A blocking solution containing 10% FBS in PBS was added to the wells and incubated for 1 h. Subsequently, the wells were washed again. The supernatant obtained from the macrophage infection assay was added to the respective wells. Known concentrations of recombinant cytokines (TNF-α, IL-10, IL-6, and IL-12) were also added to the plate in parallel, covering a range from high to low concentrations. The plates were maintained at 4 °C for another 18 h. Following this incubation, additional washes were performed. The detector complex, consisting of biotinylated detection antibodies, was added to the wells. The plates were incubated for an additional hour. After another round of washing, the enzymatic complex avidin-peroxidase was added to each well. The plates were incubated for 30 min at room temperature. The reaction was initiated by adding a substrate solution containing tetramethylbenzidine and hydrogen peroxide. This reaction was allowed to proceed for 15 min. To stop the reaction, 1N sulfuric acid was added to each well. The absorbance was measured in a plate reader at a wavelength of 450 nm. The concentration of cytokines (TNF-α, IL-10, IL-6, and IL-12) in the supernatants was determined by interpolation from the standard curve.

[2] = system: L. (L.) amazonensis promastigotes; set-up: method as in PMID 30913526; details: read-out: IC50 antipromastigote activity; cited from earlier work
[3] = Cell toxicity, MTT-based EZ4U assay, A549; set-up: species or system human; details: human, A549 cells (alveolar basal epithelial adenocarcinoma), 72 h; for viability at 72 h, 2.34 µmol/L: A549, 2.34 µmol/L; for viability at 72 h, 4.6875 µmol/L: A549, 4.6875 µmol/L; for viability at 72 h, 9.375 µmol/L: A549, 9.375 µmol/L; for viability at 72 h, 18.75 µmol/L: A549, 18.75 µmol/L; for viability at 72 h, 37.5 µmol/L: A549, 37.5 µmol/L; for viability at 72 h, 75 µmol/L: A549, 75 µmol/L; for viability at 72 h, 150 µmol/L: A549, 150 µmol/L; for viability at 72 h, 300 µmol/L: A549, 300 µmol/L; for viability at 72 h, 600 µmol/L: A549, 600 µmol/L
Protocol: (§1) In this study, we utilized the RAW 264.7 macrophages line (obtained from ATCC: code TIB-71™),human embryonic kidney cell line HEK-293 (obtained from ATCC: code CRL-1573™)and two human cancer cell cultures: the colon carcinoma cell line CaCo-2 and the adenocarcinomic human alveolar basal epithelial cell A549 (also obtained from ATCC: codesHTB-37™ and CCL-185™).These cell lines were cultured in Dulbecco’s modified Eagle medium (DMEM) from Gibco by Life Technologies (LifeTech Austria, Vienna, Austria). The growth medium was supplemented with 5% fetal bovine serum (FBS) from Gibco by Life Technologies and 1% penicillin-streptomycin obtained from Sigma-Aldrich (Vienna, Austria). The cells were maintained at 37 °C with 5% CO2 in a humidified incubator, and regular checks for mycoplasma contamination were carried out.
(§2) For experimental purposes, the cells were seeded into 96-well plates at a density of 2 × 10^4 cells/mL, with each well containing 100 µL of the cell suspension. The cells were allowed to adhere for 24 h. […] The stock solutions of these compounds were prepared in water with 10% (v/v) dimethyl sulfoxide (DMSO) and stored at 4 °C.
(§3) To assess cell viability after 72 h of exposure to the compounds, we employed a 3-(4,5-dimethylthiazol-2-yl)-2,5-diphenyltetrazolium bromide (MTT)-based vitality assay kit (EZ4U, Biomedica, Vienna, Austria). Briefly, we added 20 µL of the EZ4U assay solution to each well and incubated the plates in the dark for 2 h. Subsequently, we measured the absorbance using a microplate reader at 450 nm, with 620 nm as a reference to reduce unspecific background values. For reliability, all experiments were conducted three times with triplicate samples.

A549 = experiment: Cell toxicity, MTT-based EZ4U assay, A549; set-up: species or system human; details: A549, 1.56–500 µmol/L
Protocol: as §1, §2, §3

| Compound | IC50 ([1]; Leishmania braziliensis) | TNF-α level (TNF-α) | IC50 [2] | viability at 72 h, 2.34 µmol/L [3] | viability at 72 h, 4.6875 µmol/L [3] | viability at 72 h, 9.375 µmol/L [3] | viability at 72 h, 18.75 µmol/L [3] | viability at 72 h, 37.5 µmol/L [3] | viability at 72 h, 75 µmol/L [3] | viability at 72 h, 150 µmol/L [3] | viability at 72 h, 300 µmol/L [3] | viability at 72 h, 600 µmol/L [3] | toxic effects on cell viability (A549) | IC50 [1] |
| --- | --- | --- | --- | --- | --- | --- | --- | --- | --- | --- | --- | --- | --- | --- |
| CC(C)(C)c1ccc(N/C(=N\C(=O)c2ccccc2)NCc2ccccc2)cc1 [LQOF-G6, (Z)-N-benzoyl-N-benzyl-N-(4-tert-butylphenyl)guanidine] | 5.9 ± 0.9 µM | increased | 25.9 µM |  |  |  |  |  |  |  |  |  |  |  |
| O=C(/N=C(/NCc1ccccc1)Nc1ccc(Br)cc1)c1ccccc1 [LQOF-G2, (Z)-N-benzoyl-N-benzyl-N-(4-bromophenyl)guanidine] | 5.4 ± 0.8 µM | increased | 19.6 µM | 106 ± 6.3% | 109 ± 5.5% | 102 ± 10.5% | 89 ± 5.7% | 99 ± 5.2% | 96 ± 7.7% | 109 ± 4.3% | 111 ± 9.3% | 110 ± 7.9% | No toxic effects |  |
| O=C(/N=C(/NCc1ccccc1)Nc1ccc([N+](=O)[O-])cc1)c1ccccc1 [LQOF-G1, (Z)-N-benzoyl-N-benzyl-N-(4-nitrophenyl)guanidine] | 4.62 µM | increased | 11.5 µM | 114 ± 7% | 97 ± 10.7% | 103 ± 8.8% | 103 ± 5.7% | 101 ± 8.3% | 92 ± 9.3% | 100 ± 6.5% | 110 ± 7.2% | 90 ± 8.3% | No toxic effects | 4.6 ± 0.5 µM |
| O=C(/N=C(/NCc1ccc(Cl)cc1Cl)Nc1ccc(Br)cc1)c1ccccc1 [LQOF-G32, (Z)-N-benzoyl-N-(2,4-di-chlorobenzyl)-N-(4-bromophenyl)guanidine] | 17.2 ± 1 µM |  |  | 109 ± 9.7% | 157 ± 10.6% | 165 ± 8.1% | 121 ± 3.6% | 118 ± 9.9% | 115 ± 17.5% | 111 ± 15.5% | 106 ± 13.8% | 95 ± 10.4% | No toxic effects |  |
| O=C(/N=C(/NCc1ccccc1)Nc1ccc(I)cc1)c1ccccc1 [LQOF-G7, (Z)-N-benzoyl-N-benzyl-N-(4-iodophenyl)guanidine] | 7.2 ± 0.6 µM |  | 15.9 µM |  |  |  |  |  |  |  |  |  |  |  |

Reference: paper PMC10813298, “Evidence of Guanidines Potential against Leishmania (Viannia) braziliensis: Exploring In Vitro Effectiveness, Toxicities and of Innate Immunity Response Effects” (Biomolecules, 2023)
